Measurements: patent publication US20100305068A1, “COMPOUNDS AND METHODS FOR MODULATING PROTEIN TRAFFICKING” (priority 2006, published 2010)
Read-outs that look alike come from different tables or passages of the source.

Tested on: pdr5 ypt1^ts cells
Experiment: microbe, parasite or virus in culture
Format: cell-based, yeast
Details: for minimal effective concentration: Saccharomyces cerevisiae, lowest concentration tested giving growth above the 0 μM background, read-out: ypt1-ts MRC (minimal rescue concentration); for minimal effective concentration / optical density, ypt1-ts, 0.39 / optical density, ypt1-ts, 0.78 / optical density, ypt1-ts, 1.56 / optical density, ypt1-ts, 3.13 / optical density, ypt1-ts, 6.25 / optical density, ypt1-ts, 12.5 / optical density, ypt1-ts, 25: Table 2; for optical density, ypt1-ts, 0.39: 0.39 μM compound; for optical density, ypt1-ts, 0.39 / optical density, ypt1-ts, 0.78 / optical density, ypt1-ts, 1.56 / optical density, ypt1-ts, 3.13 / optical density, ypt1-ts, 6.25 / optical density, ypt1-ts, 12.5 / optical density, ypt1-ts, 25: background (0 μM) 0.058; for optical density, ypt1-ts, 0.78: 0.78 μM compound; for optical density, ypt1-ts, 1.56: 1.56 μM compound; for optical density, ypt1-ts, 3.13: 3.13 μM compound; for optical density, ypt1-ts, 6.25: 6.25 μM compound; for optical density, ypt1-ts, 12.5: 12.5 μM compound; for optical density, ypt1-ts, 25: 25 μM compound
Text: The activity of the compounds as modulators of protein trafficking may be measured in the assays described herein that evaluate the ability of a compound to rescue an impairment in protein trafficking. For example, the yeast mutant cell line ypt1^ts can be used to identify compounds that rescue cells from the lethal phenotype of a mutant YPT1 allele (see, e.g., Examples and Schmitt et al. (1988) Cell 53:635-47). The activity may be measured, for example, in a whole yeast cell assay using 384-well screening protocol and an optical density measurement.
The yeast mutant cell line ypt1^ts suppresses, in a temperature dependent fashion, the dominant-lethal phenotype of a mutant YPT1 allele (Schmitt et al. (1988) Cell 53:635-47). ypt1^ts cells grow normally at temperatures up to 30° C., but are growth arrested at 37° C. (Id.).
A library of compounds (“The Spectrum Collection”) obtained from Microsource Discovery Systems, Inc. (Gaylordsville, Conn.) was screened to assess the ability of individual compounds to restore growth of ypt1^ts cells. Screening was carried out using ypt1^ts cells containing a mutation in the pdr5 gene (resulting in inactivation of a membrane efflux pump). The effect of the compounds was measured in pdr5 ypt1^ts cells cultured at 37° C.

[1] = Table 3, 3.13 uM compound, 37° C., background (0 uM) 0.077
[2] = Table 3, 12.5 uM compound, 37° C., background (0 uM) 0.077
[3] = Table 3, 50 uM compound, 37° C., background (0 uM) 0.077

Row | Structure (SMILES) | minimal effective concentration (37° C.) | optical density, ypt1-ts, 0.39 (37° C.) | optical density, ypt1-ts, 0.78 (37° C.) | optical density, ypt1-ts, 1.56 (37° C.) | optical density, ypt1-ts, 3.13 (37° C.) | optical density, ypt1-ts, 6.25 (37° C.) | optical density, ypt1-ts, 12.5 (37° C.) | optical density, ypt1-ts, 25 (37° C.) | optical density, 3.13 uM [1] | optical density, 12.5 uM [2] | optical density, 50 uM [3] | further results
1 | CC1(C)CC2C1CCC1(CBr)CC[C@H]3C(CC(=O)O)C(=O)OC23C1 (stereo partly shown) [BROMO-3-HYDROXY- 4-(SUCCIN-2-YL)- CARYOLANE gamma- LACTONE] | 6.25 µM | 0.091 | 0.079 | 0.091 | 0.101 | 0.139 | 0.245 | 0.417 | – | – | – | –
2 | COC(=O)C[C@H]1C(C)(C)C(=O)[C@@H]2CC3C4=CC(=O)O[C@@H](c5ccoc5)[C@]4(C)CCC3[C@]1(C)C2=O (stereo partly shown) [CARAPIN] | – | – | – | – | – | – | – | – | 0.22 | 0.357 | 0.5 | –
3 | CNC(=O)Oc1cccc2c1OC(C)(C)C2 [CARBO- FURAN] | – | – | – | – | – | – | – | – | 0.176 | 0.264 | 0.239 | –
4 | C=C1CCC(OC(C)=O)/C(C)=C/C[C@@H]2[C@@H]1CC2(C)C (stereo partly shown) [CARY[…]] | 12.5 µM | 0.087 | 0.076 | 0.084 | 0.1 | 0.109 | 0.239 | 0.258 | – | – | – | –
5 | CC1(C)C(=O)C=C[C@@]2(C)C1=C(O)C(=O)[C@]1(C)[C@@H]2CC[C@@]2(C)[C@H](c3ccoc3)C[C@H]3O[C@]321 [CEDRELONE] | 1.56 µM | 0.221 | 0.124 | 0.264 | 0.49 | 0.532 | 0.541 | 0.496 | – | – | – | –
6 | CC(CCC(=O)O)[C@H]1CCC2C3C(CC[C@@]21C)[C@@]1(C)CC[C@@H](O)C[C@H]1C[C@H]3O (stereo partly shown) [CHENODIOL, reference compound] | – | – | – | – | – | – | – | – | 0.126 | 0.285 | 0.15 | –
7 | CCOP(=S)(OCC)Oc1nc(Cl)c(Cl)cc1Cl [CHLOR- PYRIFOS] | – | – | – | – | – | – | – | – | 0.122 | 0.166 | 0.253 | –
8 | CC(=O)O[C@]1(C(C)=O)CC[C@H]2[C@@H]3C=C(Cl)C4=CC(=O)CC[C@]4(C)[C@H]3CC[C@@]21C [CHLORMADINONE ACETATE, reference compound] | 12.5 µM | 0.193 | 0.078 | 0.088 | 0.112 | 0.11 | 0.2 | 0.296 | – | – | – | –
9 | CC(C)OC(=O)Nc1cccc(Cl)c1 [CHLORPROPHAM] | 25 µM | 0.086 | 0.072 | 0.081 | 0.09 | 0.096 | 0.101 | 0.145 | – | – | – | –
10 | CC1=C2C(=CO[C@H](C)[C@H]2C)C(=O)C(C(=O)O)=C1O [CITRININ] | – | – | – | – | – | – | – | – | 0.102 | 0.158 | 0.38 | –
11 | Cl.Clc1cccc(Cl)c1N=C1NCCN1 [CLONIDINE HYDRO- CHLORIDE, reference compound] | – | – | – | – | – | – | – | – | – | – | – | optical density, 3.13 uM: 0.237; optical density, 12.5 uM: 0.095; optical density, 50 uM: 0.064
12 | C=C1C(=O)OC2CC1C(OC(C)=O)C/C(C)=C/CC/C(C)=C/CC[C@]2(C)O (stereo partly shown) [CRASSIN ACETATE] | 12.5 µM | 0.084 | 0.068 | 0.075 | 0.099 | 0.107 | 0.324 | 0.443 | – | – | – | –
13 | CC1(C)C(=O)C=C[C@@]2(C)C1CC(=O)[C@]1(C)C2CC[C@@]2(C)[C@H](c3ccoc3)OC(=O)[C@H]3O[C@]321 (stereo partly shown) [DEACETOXY- 7-OXOGEDUNIN] | – | – | – | – | – | – | – | – | 0.594 | 0.63 | 0.642 | –
14 | CC1(C)C(=O)C=C[C@@]2(C)C1C[C@@H](O)[C@]1(C)C2CC[C@@]2(C)[C@H](c3ccoc3)OC(=O)[C@H]3O[C@]321 (stereo partly shown) [DEACETYL- GEDUNIN] | – | – | – | – | – | – | – | – | 0.116 | 0.185 | 0.377 | –
15 | CC(C)c1ccc2c(c1)CCC1C(C)(C(N)=O)CCCC21C (stereo not shown) [DEHYDRO- ABIETAMIDE] | – | – | – | – | – | – | – | – | 0.272 | 0.419 | 0.041 | –
16 | C=CCCCCCCCCCCC/C=C/C(O)COC(C)=O (stereo not shown) [DEHYDRO- AVOCATIN - 1-ACETATE] | – | – | – | – | – | – | – | – | 0.116 | 0.329 | 0.365 | –
17 | COc1c2occc2cc2c(=O)c3c(oc12)COc1cc2c(cc1-3)OCO2 [DEHYDRO- PACHYRRHIZONE] | 12.5 µM | 0.1 | 0.072 | 0.088 | 0.11 | 0.124 | 0.149 | 0.211 | – | – | – | –
18 | CC(=O)O[C@@H]1CC2C(C)(C)CCC[C@]2(C)C2CC[C@]3(C)C(=CC(=O)O[C@H]3c3ccoc3)[C@@]21C (stereo partly shown) [DEOXO- DEOXY- DIHYDRO- GEDUNIN] | – | – | – | – | – | – | – | – | 0.245 | 0.479 | 0.452 | –
19 | CC1(C)C2CC(=O)O[C@@]3(C)C4=CC(=O)O[C@@H](c5ccoc5)[C@]4(C)CCC3[C@@]2(C)C=C[C@H]1O (stereo partly shown) [DEOXY- ANDIROBIN LACTONE] | – | – | – | – | – | – | – | – | 0.723 | 0.678 | 0.642 | –
20 | CC(CCC(=O)O)[C@H]1CCC2C3CC[C@H]4C[C@H](O)CC[C@]4(C)C3C[C@H](O)[C@@]21C (stereo partly shown) [DEOXY- CHOLIC ACID, reference compound] | – | – | – | – | – | – | – | – | 0.233 | 0.481 | 0.133 | –
21 | CC(=O)O[C@@H]1CC2C(C)(C)C(=O)C=C[C@]2(C)C2CC[C@]3(C)C(=CC(=O)O[C@H]3c3ccoc3)[C@@]21C (stereo partly shown) [DEOXY- GEDUNIN] | – | – | – | – | – | – | – | – | 0.092 | 0.141 | 0.328 | –
22 | COc1ccc2c(c1)OCC(Cc1ccc(OC)c(OC(C)=O)c1)C2=O (stereo not shown) [DEOXY- SAPPANONE B 7,3′-DI- METHYL ETHER ACETATE] | – | – | – | – | – | – | – | – | 0.137 | 0.17 | 0.374 | –
23 | COc1ccc2c(c1)OCC(Cc1ccc(OC)c(OC)c1)C2=O (stereo not shown) [DEOXY- SAPPANONE B TRIMETHYL ETHER] | – | – | – | – | – | – | – | – | 0.107 | 0.203 | 0.514 | –
24 | CC1(C)C2CC(=O)O[C@]3(C)C4=CC(=O)O[C@@H](c5ccoc5)[C@]4(C)CCC3[C@@]2(C)C=C[C@H]1O (stereo partly shown) [DEOXYANDIROBIN- LACTONE] | 3.13 µM | 0.107 | 0.082 | 0.089 | 0.137 | 0.249 | 0.524 | 0.613 | – | – | – | –
